Where “and” joins values, the source holds several entries; their conditions need not be identical. Equal entries are not always repeated. Toxic doses and inconclusive results are not listed. The calls were made as follows: active = survival T/C of 150% or more; inactive = T/C below 125% in these data.
System: P388 leukemia ip, CD2F1 mice, survival T/C
Test: NCI In Vivo Anticancer Drug Screen. Data for tumor model P388 Leukemia (intraperitoneal) in CD2F1 (CDF1) mice
Conditions: endpoint: median survival time, higher = longer survival
Outline: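 Mice carrying the transplanted tumor received test compound or vehicle. Survival was recorded in each group, and the value is the treated-group measurement divided by that of the vehicle-treated control group.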

[1] = dose: 50.0 mg/kg/injection, schedule: Q01DX009 (ip), vehicle: Klucel (hydroxypropylcellulose) (HPC)
[2] = dose: 50.0 mg/kg/injection, schedule: Q01DX005 (ip), vehicle: saline with Tween-80
[3] = dose: 100.0 mg/kg/injection, schedule: Q01DX005 (ip), vehicle: saline with Tween-80
[4] = dose: 200.0 mg/kg/injection, schedule: Q01DX005 (ip), vehicle: saline with Tween-80
[5] = dose: 50.0 mg/kg/injection, schedule: Q01DX009 (ip), vehicle: suspension in saline
[6] = dose: 100.0 mg/kg/injection, schedule: Q01DX009 (ip), vehicle: suspension in saline
[7] = dose: 200.0 mg/kg/injection, schedule: Q01DX009 (ip), vehicle: suspension in saline
[8] = dose: 50.0 mg/kg/injection, schedule: Q01DX009 (ip), vehicle: saline
[9] = dose: 100.0 mg/kg/injection, schedule: Q01DX009 (ip), vehicle: saline
[10] = dose: 200.0 mg/kg/injection, schedule: Q01DX009 (ip), vehicle: saline
[11] = dose: 100.0 mg/kg/injection, schedule: Q04DX003 (ip), vehicle: saline with Tween-80
[12] = dose: 200.0 mg/kg/injection, schedule: Q04DX003 (ip), vehicle: saline with Tween-80
[13] = dose: 400.0 mg/kg/injection, schedule: Q04DX003 (ip), vehicle: saline with Tween-80
[14] = dose: 100.0 mg/kg/injection, schedule: Q01DX001 (ip), vehicle: Klucel (hydroxypropylcellulose) (HPC)
[15] = dose: 200.0 mg/kg/injection, schedule: Q01DX001 (ip), vehicle: Klucel (hydroxypropylcellulose) (HPC)
[16] = dose: 400.0 mg/kg/injection, schedule: Q01DX001 (ip), vehicle: Klucel (hydroxypropylcellulose) (HPC)
[17] = dose: 60.0 mg/kg/injection, schedule: Q01DX005 (ip), vehicle: saline with Tween-80
[18] = dose: 120.0 mg/kg/injection, schedule: Q01DX005 (ip), vehicle: saline with Tween-80
[19] = dose: 50.0 mg/kg/injection, schedule: Q01DX005 (ip), vehicle: Klucel (hydroxypropylcellulose) (HPC)
[20] = dose: 100.0 mg/kg/injection, schedule: Q01DX005 (ip), vehicle: Klucel (hydroxypropylcellulose) (HPC)
[21] = dose: 200.0 mg/kg/injection, schedule: Q01DX005 (ip), vehicle: Klucel (hydroxypropylcellulose) (HPC)
[22] = dose: 100.0 mg/kg/injection, schedule: Q01DX009 (ip), vehicle: saline with Tween-80
[23] = dose: 200.0 mg/kg/injection, schedule: Q01DX009 (ip), vehicle: saline with Tween-80
[24] = dose: 50.0 mg/kg/injection, schedule: Q01DX009 (ip), vehicle: saline with Tween-80
[25] = dose: 25.0 mg/kg/injection, schedule: Q01DX009 (ip), vehicle: saline

Measured: T/C

N#CCCn1nnc2ccccc21
inactive: dose: 6.25 mg/kg/injection, schedule: Q01DX009 (ip), vehicle: Klucel (hydroxypropylcellulose) (HPC) 91 % of control | dose: 12.5 mg/kg/injection, schedule: Q01DX009 (ip), vehicle: Klucel (hydroxypropylcellulose) (HPC) 94 % of control | dose: 25.0 mg/kg/injection, schedule: Q01DX009 (ip), vehicle: Klucel (hydroxypropylcellulose) (HPC) 95 % of control | [1] 88 % of control

CCCCN(CCCC)C(=N)OC1CCCCC1
inactive: dose: 12.5 mg/kg/injection, schedule: Q01DX005 (ip), vehicle: saline with Tween-80 102 % of control | dose: 25.0 mg/kg/injection, schedule: Q01DX005 (ip), vehicle: saline with Tween-80 100 % of control | [2] 100 % of control

c1cn2cnnc2n2cnnc12
inactive: [2] 100 % of control | [3] 105 % of control | [4] 97 % of control

Cc1ccc(NC(=S)SCc2ccc([N+](=O)[O-])cc2)cc1C
inactive: [5] 89 % of control | [6] 107 % of control | [7] 101 % of control

Cc1c(CNc2ccc(C(=O)NC(CC(=O)O)C(=O)O)cc2)ccc2nc(N)nc(N)c12 (configuration not stated)
active: dose: 12.5 mg/kg/injection, schedule: Q04DX003 (ip), vehicle: saline with Tween-80 159 % of control | dose: 16.5 mg/kg/injection, schedule: Q04DX003 (ip), vehicle: saline with Tween-80 200 % of control

O=[N+]([O-])/C=C/c1cc(Br)c(O)c(Br)c1
inactive: [8] 96 % of control | [9] 115 % of control | [10] 96 % of control

Oc1cc(O)c2c(c1)Oc1cc(O)cc(O)c1C2
inactive: dose: 25.0 mg/kg/injection, schedule: Q04DX003 (ip), vehicle: saline with Tween-80 100 % of control | [2] 106 % of control | dose: 50.0 mg/kg/injection, schedule: Q04DX003 (ip), vehicle: saline with Tween-80 98 % of control | [3] 109 % of control | [11] 97 % of control | [4] 115 % of control

CCOC(=O)CC(=O)c1ccc(C)cc1
inactive: [11] 100 % of control | [12] 104 % of control | [13] 109 % of control

CCC/C=[CH]/[Hg][Cl]
inactive: dose: 6.25 mg/kg/injection, schedule: Q04DX003 (ip), vehicle: other 110 % of control | dose: 12.5 mg/kg/injection, schedule: Q04DX003 (ip), vehicle: other 110 % of control

CN1C(=O)/C(=c2\sc3nc4ccccc4n3c2=O)c2cc(Br)ccc21
inactive: [14] 99 % of control | [15] 99 % of control | [16] 101 % of control

COc1ccc(CN)cc1OC
inactive: [9] 100 % of control | [10] 105 % of control

COC(=O)c1nc(=S)[nH]c(C(=O)OC)c1C(=O)c1ccc(O)cc1O
inactive: [17] 99 % of control | [18] 98 % of control

CN(C)CCSc1c2ccccc2nc2ccccc12
inactive: dose: 12.5 mg/kg/injection, schedule: Q01DX005 (ip), vehicle: Klucel (hydroxypropylcellulose) (HPC) 110 % of control | dose: 25.0 mg/kg/injection, schedule: Q01DX005 (ip), vehicle: Klucel (hydroxypropylcellulose) (HPC) 110 % of control and 119 % of control | [19] 100 % of control (2×) and 101 % of control

c1ccc(C(c2ccccc2)(c2cccs2)N2CCCCC2)cc1
inactive: [14] 99 % of control | [15] 94 % of control | [16] 96 % of control

O=c1oc2c(cc1-c1ccccc1)CCc1ccccc1-2
inactive: [19] 102 % of control | [20] 100 % of control | [21] 102 % of control

O=NNc1nc(-c2cccnc2)nc2ccccc12
inactive: dose: 1.25 mg/kg/injection, schedule: Q01DX009 (ip), vehicle: water 112 % of control | dose: 2.5 mg/kg/injection, schedule: Q01DX009 (ip), vehicle: water 110 % of control | dose: 5.0 mg/kg/injection, schedule: Q01DX009 (ip), vehicle: water 111 % of control | dose: 10.0 mg/kg/injection, schedule: Q01DX009 (ip), vehicle: water 100 % of control

S=c1nc[nH]c2c1ncn2C1CCCCO1 (configuration not stated)
inactive: dose: 15.0 mg/kg/injection, schedule: Q01DX009 (ip), vehicle: saline with Tween-80 86 % of control | dose: 30.0 mg/kg/injection, schedule: Q01DX009 (ip), vehicle: saline with Tween-80 104 % of control | dose: 60.0 mg/kg/injection, schedule: Q01DX009 (ip), vehicle: saline with Tween-80 113 % of control | dose: 62.5 mg/kg/injection, schedule: Q01DX009 (ip), vehicle: Klucel (hydroxypropylcellulose) (HPC) 86 % of control | [22] 118 % of control | [11] 91 % of control | dose: 120.0 mg/kg/injection, schedule: Q01DX009 (ip), vehicle: saline with Tween-80 108 % of control | dose: 125.0 mg/kg/injection, schedule: Q01DX009 (ip), vehicle: Klucel (hydroxypropylcellulose) (HPC) 109 % of control | [23] 104 % of control | [12] 108 % of control | dose: 250.0 mg/kg/injection, schedule: Q01DX009 (ip), vehicle: Klucel (hydroxypropylcellulose) (HPC) 90 % of control | [13] 112 % of control

COc1cccc2c1-c1nc(N)c3c(OC)cccc3c1C2=O
inactive: dose: 100.0 mg/kg/injection, schedule: Q04DX002 (ip), vehicle: Klucel (hydroxypropylcellulose) (HPC) 106 % of control | dose: 200.0 mg/kg/injection, schedule: Q04DX002 (ip), vehicle: Klucel (hydroxypropylcellulose) (HPC) 108 % of control | dose: 400.0 mg/kg/injection, schedule: Q04DX002 (ip), vehicle: Klucel (hydroxypropylcellulose) (HPC) 107 % of control

N#CC1=C(C#N)C(=O)c2ccccc2C1=O
inactive: dose: 25.0 mg/kg/injection, schedule: Q01DX009 (ip), vehicle: saline with Tween-80 104 % of control | [24] 104 % of control

CN(C)C(=O)Oc1c(Cc2ccccc2)c(=O)n2c([nH]c3ccccc32)c1C#N
inactive: [17] 89 % of control | [18] 92 % of control

C/C(=N\NC(=O)Cc1ccccc1)C(=O)O
inactive: [19] 100 % of control | [20] 89 % of control | [21] 94 % of control

Cc1cc[c]([Sb]2([c]3ccc(C)cc3)([c]3ccc(C)cc3)[NH]c3cc(C(c4ccccc4)(c4ccccc4)c4ccccc4)cc(C(C)(C)C)c3[O]2)cc1
inactive: [24] 94 % of control | [22] 92 % of control | [23] 99 % of control

Cc1cc(NC(=S)SCc2ccc(F)cc2)ccc1Br
inactive: [1] 112 % of control and 122 % of control | [5] 93 % of control | dose: 100.0 mg/kg/injection, schedule: Q01DX009 (ip), vehicle: Klucel (hydroxypropylcellulose) (HPC) 114 % of control and 115 % of control | [6] 94 % of control | [7] 109 % of control

COc1ccccc1C(C)c1cc2c(cc1OC)OCO2 (configuration not stated)
inactive: [2] 100 % of control | [3] 101 % of control | [4] 93 % of control

ClCCc1ccn[nH]1
inactive: dose: 100.0 mg/kg/injection, schedule: Q04DX002 (ip), vehicle: saline 97 % of control | dose: 200.0 mg/kg/injection, schedule: Q04DX002 (ip), vehicle: saline 99 % of control

Clc1ccccc1OCc1cnc[nH]1
inactive: [25] 102 % of control | [8] 111 % of control | [9] 117 % of control

Nc1ccc2c(c1)Cc1cc(NC=O)ccc1-2
inactive: dose: 12.5 mg/kg/injection, schedule: Q01DX009 (ip), vehicle: saline 94 % of control | [25] 91 % of control | [8] 91 % of control | [9] 91 % of control

CC(=O)NCSCC(N)C(=O)O (configuration not stated)
inactive: [9] 104 % of control | dose: 100.0 mg/kg/injection, schedule: Q04DX003 (ip), vehicle: saline 95 % of control | [10] 118 % of control | dose: 200.0 mg/kg/injection, schedule: Q04DX003 (ip), vehicle: saline 113 % of control | dose: 400.0 mg/kg/injection, schedule: Q01DX009 (ip), vehicle: saline 90 % of control | dose: 400.0 mg/kg/injection, schedule: Q04DX003 (ip), vehicle: saline 90 % of control

From PubChem BioAssay AID330 (DTP/NCI, 2004)
